Data reported in patent US20260347403A1, “FUNGICIDAL COMPOUND” (priority 2022, published 2026).
Where two headings read alike, the source gives them in different places. Numbered stars: 1 amine (or outer) side, 2 acyl side, 3 side chain; on linkers, the order of the positions; unused ones are H or OH. Bridge positions count the residues as written; N and C are the ends. Square brackets hold non-standard residues; d marks the D form. Peptide text beside a SMILES is read from it. * marks the point of attachment. Tridecanoyl(12-Me) = CC(C)CCCCCCCCCCC(=O)*; X1 = NC(=O)CC(O)C(N[*:1])C(=O)[*:2]; NMeF = CN[CH](Cc1ccccc1)C(=O)O; NMeN = CN[CH](CC(N)=O)C(=O)O; X2 = CCC(C)CCCCCCCCCCC(=O)*

Legend:
Assay type in all cases: cell-based
Botrytis cinerea = assay: Liquid culture 96-well mixture assay with malonomicin, Botrytis cinerea, 72 hrs; conditions: line H malonomicin alone, concentrations in Table 8
Method: (§1) A stock solution for compound of Formula I(a) was produced in DMSO (max. 10 mg/ml). Malonomicin was produced according to Law et al, 2018 (Nature Catalys is |VOL 1|DECEMBER 2018|977-984). A stock solution of malonomicin was produced in water plus 0.025% Tween® 20.
(§2) Assays to test efficacy of mixtures of the lipopeptide compound of Formula I(a) in combination with malonomicin on the control of fungal pathogens in a liquid culture assay were designed for a 96well plate as outlined in table 1:
(§3) The 96 well plate design allows to compare disease control of the mixture with disease control of the respective single compound at the same rate.
(§4) A master plate with 10× concentrated solution of the compound stock solutions diluted in water plus 0.025% Tween® 20 was prepared. The concentration of DMSO (from the stock of compound of Formula (a)) and Tween® 20 was kept constant in all cells of the master plate. 10 μl was transferred from the master plate to a 96well test plate. The nutrient broth containing the fungal spores/mycelia fragments was then added to the test plate to give an end concentration of 1× for the tested compounds (as outlined in Table 8). The test plates were incubated in the dark at 24 °C and 96% rh. The inhibition of fungal growth was determined photometrically after ca 3 days, and percent fungal growth reduction relative to the untreated check was calculated.
Botrytis cinerea (EPPO Code: BOTRCI)
Conidia of the fungus from cryogenic storage were directly mixed into nutrient broth (Vogel's minimal media).

Cercospora arachidicola = assay: Liquid culture 96-well mixture assay with malonomicin, Cercospora arachidicola, 5-6 days; conditions: line H malonomicin alone, concentrations in Table 8
Method: as §1, §2, §3
as §4, with “The inhibition of fungal growth was determined photometrically after ca 3 days, and percent fungal growth reduction relative to the untreated check was calculated.” left out
Cercospora arachidicola (EPPO Code: MYCOAR)
Conidia of the fungus from cryogenic storage were directly mixed into nutrient broth (PDB: potato dextrose broth).

Zymoseptoria tritici = assay: Liquid culture, Zymoseptoria tritici (Septoria tritici), Septoria leaf blotch, 4-5 days; conditions: Zymoseptoria tritici, read-out: % reduction fungal growth
Method: (§5) Mycelia fragments or conidia suspensions of a fungus, prepared either freshly from liquid cultures of the fungus or from cryogenic storage, were directly mixed into nutrient broth.
(§6) A stock solution for compound of Formula I(a) and Formula I(b) was produced in DMSO (max. 10 mg/ml), which was diluted with water plus 0.025% Tween®20 to produce a 10× concentrated sample and 10 μl of this solution was pipetted into a microtiter plate (96-well format). The nutrient broth containing the fungal spores/mycelia fragments was then added to give an end concentration of the tested compound. The test plates were incubated in the dark at 24 °C and 96% rh. The inhibition of fungal growth was determined photometrically after 2-7 days, depending on the pathosystem, and percent antifungal activity relative to the untreated check was calculated.
The effect of the test compound (Formula I(a), I(b) and Lipopeptin A) was tested against the following fungi under the conditions as outlined above and specifically herein below:
Zymoseptoria tritici (Septoria tritici)/liquid culture (Septoria leaf blotch) Conidia of the fungus from cryogenic storage were directly mixed into nutrient broth (PDB potato dextrose broth). The inhibition of growth was determined photometrically 4-5 days after application.

[1] = test system: several phytopathogenic fungi; assay: Liquid culture assays, summary over the fungi tested; conditions: up to; Tables 2 and 3
Method: as §5, §6
The effect of the test compound (Formula I(a), I(b) and Lipopeptin A) was tested against the following fungi under the conditions as outlined above and specifically herein below: […]

[2] = plate column (2), highest malonomicin concentration, lines A-G with compound of Formula I(a) dilution series
[3] = plate column (3) of malonomicin dilution series, lines A-G with compound of Formula I(a)
[4] = plate column (4) of malonomicin dilution series, lines A-G with compound of Formula I(a)
[5] = plate column (5) of malonomicin dilution series, lines A-G with compound of Formula I(a)
[6] = plate column (6) of malonomicin dilution series, lines A-G with compound of Formula I(a)
[7] = plate column (7) of malonomicin dilution series, lines A-G with compound of Formula I(a)
[8] = plate column (8) of malonomicin dilution series, lines A-G with compound of Formula I(a)
[9] = plate column (9) of malonomicin dilution series, lines A-G with compound of Formula I(a)
[10] = plate column (10) of malonomicin dilution series, lines A-G with compound of Formula I(a)
[11] = plate column (11), lowest malonomicin concentration, lines A-G with compound of Formula I(a)

Structure (SMILES) | inhibition of growth at 0.41 ppm (Zymoseptoria tritici; Table 2) | inhibition of growth at 1.2 ppm (Zymoseptoria tritici; Table 2) | inhibition of growth at 3.7 ppm (Zymoseptoria tritici; Table 2) | inhibition of growth at 11 ppm (Zymoseptoria tritici; Table 2) | inhibition of growth at 33 ppm (Zymoseptoria tritici; Table 2) | inhibition of growth at 100 ppm (Zymoseptoria tritici; Table 2) | inhibition of growth at 0.41 ppm (Zymoseptoria tritici; Table 3) | inhibition of growth at 1.2 ppm (Zymoseptoria tritici; Table 3) | inhibition of growth at 3.7 ppm (Zymoseptoria tritici; Table 3) | inhibition of growth at 11 ppm (Zymoseptoria tritici; Table 3) | inhibition of growth at 33 ppm (Zymoseptoria tritici; Table 3) | inhibition of growth at 100 ppm (Zymoseptoria tritici; Table 3) | control of phytopathogenic fungi [1] | also measured
NC[C@@H]1NC(=O)C(C(=O)CC(NC(=O)[C@@H](N)CO)(C(=O)O)C(=O)O)=C1O [malonomicin, {[(2S)-2-amino-3-hydroxypropanoyl]amino}{2-[(5S)-5-(aminomethyl)-4-hydroxy-2-oxo-2,5-dihydro-1H-pyrrol-3-yl]-2-oxoethyl}malonic acid] | – | – | – | – | – | – | – | – | – | – | – | – | – | control of fungal growth (% reduction of growth in the test well as compared to untreated check) (Botrytis cinerea; [2]): 70%; control of fungal growth (% reduction of growth in the test well as compared to untreated check) (Botrytis cinerea; [3]): 70%; control of fungal growth (% reduction of growth in the test well as compared to untreated check) (Botrytis cinerea; [4]): 70%; control of fungal growth (% reduction of growth in the test well as compared to untreated check) (Botrytis cinerea; [5]): 70%; control of fungal growth (% reduction of growth in the test well as compared to untreated check) (Botrytis cinerea; [6]): 70%; control of fungal growth (% reduction of growth in the test well as compared to untreated check) (Botrytis cinerea; [7]): 20%; control of fungal growth (% reduction of growth in the test well as compared to untreated check) (Botrytis cinerea; [8]): 0%; control of fungal growth (% reduction of growth in the test well as compared to untreated check) (Botrytis cinerea; [9]): 0%; control of fungal growth (% reduction of growth in the test well as compared to untreated check) (Botrytis cinerea; [10]): 0%; control of fungal growth (% reduction of growth in the test well as compared to untreated check) (Botrytis cinerea; [11]): 0%; control of fungal growth (% reduction of growth in the test well as compared to untreated check) (Cercospora arachidicola; [2]): 100%; control of fungal growth (% reduction of growth in the test well as compared to untreated check) (Cercospora arachidicola; [3]): 90%; control of fungal growth (% reduction of growth in the test well as compared to untreated check) (Cercospora arachidicola; [4]): 70%; control of fungal growth (% reduction of growth in the test well as compared to untreated check) (Cercospora arachidicola; [5]): 70%; control of fungal growth (% reduction of growth in the test well as compared to untreated check) (Cercospora arachidicola; [6]): 50%; control of fungal growth (% reduction of growth in the test well as compared to untreated check) (Cercospora arachidicola; [7]): 50%; control of fungal growth (% reduction of growth in the test well as compared to untreated check) (Cercospora arachidicola; [8]): 20%; control of fungal growth (% reduction of growth in the test well as compared to untreated check) (Cercospora arachidicola; [9]): 20%; control of fungal growth (% reduction of growth in the test well as compared to untreated check) (Cercospora arachidicola; [10]): 0%; control of fungal growth (% reduction of growth in the test well as compared to untreated check) (Cercospora arachidicola; [11]): 0%
CCC(C)CCCCCCCCCCC(=O)NC1C(=O)NC(CC(=O)O)C(=O)NC(C(O)CC(N)=O)C(=O)NC(CO)C(=O)N(C)C(CC(N)=O)C(=O)N(C)C(Cc2ccccc2)C(=O)NC(CCC(N)=O)C(=O)NC(CCC(=O)O)C(=O)OC1C (stereo not shown) [Formula I(b)] (X2-TD[X1]S[NMeN][NMeF]QE; ester 1-C; configuration not given here) | 0% | 0% | 0% | 50% | 70% | 70% | 0% | 0% | 0% | 90% | 90% | 90% | up to 100% | –
CC(C)CCCCCCCCCCC(=O)NC1C(=O)NC(CC(=O)O)C(=O)NC(C(O)CC(N)=O)C(=O)NC(CO)C(=O)N(C)C(CC(N)=O)C(=O)N(C)C(Cc2ccccc2)C(=O)NC(CCC(N)=O)C(=O)NC(CCC(=O)O)C(=O)OC1C (stereo not shown) [Formula I(a)] ({Tridecanoyl(12-Me)}-TD[X1]S[NMeN][NMeF]QE; ester 1-C; configuration not given here) | 0% | 0% | 0% | 70% | 100% | 100% | 0% | 0% | 0% | 70% | 90% | 90% | up to 100% | –
